Laboratory results: patent publication US6608048B2, “Tricyclic protein kinase inhibitors” (Wyeth Holdings, priority 2000, dated 2003)
Each block holds one compound with its values, some of them ahead of it.

Legend:
[1] = tested on: Human epidermoid tumors (A431); assay: In vivo inhibition of the growth of human epidermoid tumors (A431); settings: for S/T (# of Survivors/# of Treated): Day +21 post tumor staging
Protocol: BALB/c nu/nu female mice (Charles River, Wilmington, Mass.) were used in the in vivo standard pharmacological test procedures. Human epidermoid carcinoma cells A-431 (American Type Culture Collection, Rockville, Md. #CRL-155) were grown in vitro as described above. A unit of 5×10^6 cells were injected subcutaneously into mice. When tumors attained a mass of between 100 and 150 mg, the mice were randomized into treatment groups (day zero). Mice were treated orally (PO) once a day on days 1 through 10 post staging with doses of either 40, 20, 10, 3 or 1 mg/kg/dose of the compound to be evaluated in 0.2% Klucel. Control animals received no drug. Tumor mass was determined every 7 days [(length×width^2)/2] for 28 days post staging. Relative tumor growth (Mean tumor mass on day 7, 14, and 21 divided by the mean tumor mass on day zero) is determined for each treatment group. The % T/C (Tumor/Control) is determined by dividing the relative tumor growth of the treated group by the relative tumor growth of the placebo group and multiplying by 100. A compound is considered to be active if the % T/C is found to be=42%.

[2] = target: T1, EGF-R Kinase (recombinant enzyme) (Homo sapiens, UniProt P00533); assay: Inhibition of Epidermal Growth Factor Receptor Kinase (EGF-R) using recombinant enzyme; type: biochemical; settings: RR-SRC peptide substrate
T1 construct: containing the EGFR cDNA encoding amino acids 645-1186 preceded by Met-Ala-(Ris)6; made in house; host or cells: Sf9 insect cells, recombinant baculovirus vHcEGFR52
Protocol: Representative test compounds were evaluated for their ability to inhibit the phosphorylation of the tyrosine residue of a peptide substrate catalyzed by the enzyme epidermal growth factor receptor kinase. […] The enzyme used in this assay is the His-tagged cytoplasmic domain of EGFR. […] A cytoplasmic extract was prepared using 1% Triton X-100 and applied to Ni-NTA column.
Test compounds were made into 10 mg/mL stock solutions in 100% dimethylsulfoxide (DMSO).
The IC50 is the concentration of test compound needed to reduce the total amount of phosphorylated substrate by 50%. The % inhibition of the test compound was determined for at least three different concentrations and the IC50 value was evaluated from the dose response curve.
CPM(control) is in units of counts per minute and was a number expressing the amount of radiolabeled ATP (γ-^33P) incorporated into the RR-SRC peptide substrate by the enzyme after 90 minutes at room temperature in the absence of test compound as measured by liquid scintillation counting. The CPM values were corrected for the background counts produced by ATP in the absence of the enzymatic reaction.

T1 sequence (P00533 669-1210): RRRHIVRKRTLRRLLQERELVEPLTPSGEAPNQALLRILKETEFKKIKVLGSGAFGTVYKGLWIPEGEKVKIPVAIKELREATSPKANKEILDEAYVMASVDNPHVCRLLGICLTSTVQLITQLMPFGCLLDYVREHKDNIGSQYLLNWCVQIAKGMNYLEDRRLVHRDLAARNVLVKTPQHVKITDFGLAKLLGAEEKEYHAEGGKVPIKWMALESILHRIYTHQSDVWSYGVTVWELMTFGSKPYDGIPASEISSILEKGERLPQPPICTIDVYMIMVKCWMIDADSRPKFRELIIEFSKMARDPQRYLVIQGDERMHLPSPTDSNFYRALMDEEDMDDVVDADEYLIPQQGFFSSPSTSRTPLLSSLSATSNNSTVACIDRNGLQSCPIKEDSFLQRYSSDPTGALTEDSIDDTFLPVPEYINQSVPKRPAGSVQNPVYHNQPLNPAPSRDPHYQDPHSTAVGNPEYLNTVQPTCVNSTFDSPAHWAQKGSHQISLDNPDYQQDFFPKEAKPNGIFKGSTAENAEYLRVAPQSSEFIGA

melting point: 165 °C | IC50 [2]: 200 nM
SMILES: CN(C)CCCC(=O)N1CCOc2cc3ncc(C#N)c(Nc4ccc(F)c(Cl)c4)c3cc21 [Example 10, 9-(3-Chloro-4-fluoroanilino)-1-[4-(dimethylamino)butanoyl]-2,3-dihydro-1H-[1,4]oxazino[3,2-g]quinoline-8-carbonitrile]

melting point: 105 °C | IC50 [2]: 5 nM
SMILES: CN(C)CCCCN1CCOc2cc3ncc(C#N)c(Nc4ccc(F)c(Cl)c4)c3cc21 [Example 12, 9-(3-Chloro-4-fluoroanilino)-1-[4-(dimethylamino)butyl]-2,3-dihydro-1H-[1,4]oxazino[3,2-g]quinoline-8-carbonitrile]

melting point: 97 to 98 °C
SMILES: CCN1CCN(CCCCN2CCOc3cc4c(Nc5ccc(Cl)cc5Cl)c(C#N)cnc4cc32)CC1 [Example 24, 9-(2,4-Dichloroanilino)-4-[4-(4-ethyl-1-piperazinyl)butyl]-3,4-dihydio-2H-[1,4]oxazino[2,3-g]quinoline-8-carbonitrile]

Second part, the compound before the results:

SMILES: N#Cc1cnc2cc3c(cc2c1Nc1ccc(F)c(Cl)c1)NCCO3 [Example 7, 9-(3-Chloro-4-fluoroanilino)-2,3-dihydro-1H-[1,4]oxazino[3,2-g]quinoline-8-carbonitrile]
melting point: 244 to 245 °C

SMILES: CN(C)C/C=C/C(=O)N1CCOc2cc3ncc(C#N)c(Nc4ccc(F)c(Cl)c4)c3cc21 [Example 9, 9-(3-Chloro-4-fluoroanilino)-1-[(2E)-4-(dimethylamino)-2-butenoyl]-2,3-dihydro-1H-[1,4]oxazino[3,2-g]quinoline-8-carbonitrile]
S/T (# of Survivors/# of Treated) ([1]; 1 mg/kg/dose PO, days 1 through 10): 5/5 | S/T (# of Survivors/# of Treated) ([1]; 3 mg/kg/dose PO, days 1 through 10): 5/5 | RTG (relative tumor growth) Day 21 ([1]; 10 mg/kg/dose PO, days 1 through 10, Day 21): 11.09 | S/T (# of Survivors/# of Treated) ([1]; 10 mg/kg/dose PO, days 1 through 10): 5/5 | S/T (# of Survivors/# of Treated) ([1]; 20 mg/kg/dose PO, days 1 through 10): 5/5 | S/T (# of Survivors/# of Treated) ([1]; 40 mg/kg/dose PO, days 1 through 10): 5/5 | inhibition of tumor growth in vivo (in words) ([1]; A431 tumors in mice, PO): effective inhibitor of tumor growth in vivo

SMILES: N#Cc1cnc2cc3c(cc2c1Nc1ccc(F)c(Cl)c1)N(CCCCCl)CCO3 [Example 11, 1-(4-Chlorobutyl)-9-(3-chloro-4-fluoroanilino)-2,3-dihydro-1H-[1,4]oxazino[3,2-g]quinoline-8-carbonitrile]
melting point: 78 to 79 °C

SMILES: N#Cc1cnc2cc3c(cc2c1Nc1ccc(Cl)cc1Cl)OCCN3 [Example 22, 9-(2,4-Dichloroanilino)-3,4-dihydro-2H-[1,4]oxazino[2,3-g]quinoline-8-carbonitrile]
melting point: 254 to 255 °C
